Source: patent US20190255114A1, “STORAGE OF PLATELETS” (University of Kentucky Research Foundation, priority 2018, published 2019)

Columns and labels:
[1] = test system: washed platelets from C57BL/6J mice; experiment: Thrombin-induced platelet aggregation; assay type: cell-based
Experimental: Platelets were then added with buffer or 1 mM CaCl2). Washed platelets suspended in Tyrode's solution with 1 mM CaCl2 were used as a control. Platelet aggregation was induced by addition of thrombin (0.025 U/ml).

[2] = test system: PRP prepared from healthy donors; experiment: Cold storage of human PRP: platelet counts; assay type: cell-based; conditions: human PRP (ACD anticoagulant), various time points
Experimental: Platelet counts were monitored at various time points. […] Fibrinogen binding to platelets increased after cold storage (FIG. 14B). […] The amount of serotonin secreted in the supernatant was then measured.

washed GFP platelets = experiment: Clearance of transfused cold-stored washed GFP platelets (flow cytometry); assay type: in vivo, C57BL/6J mice; conditions: 50 uM EGTA, stored at 4° C. for 24 hours, retro-orbital injection
Experimental: To monitor the life span of transfused platelets in circulation, a method that can easily differentiate the transfused platelets from recipient platelets was developed. Platelets from C57BL/6-Tg(CAGEGFP)1 Osb/J mice (GFP mice) (From Jackson Laboratories) are GFP positive that are distinct from the recipient platelets by flow cytometry assay (FIG. 6A). C57BL/6J mice were injected retro-orbitally with washed GFP platelets (2.5×10^8 per mouse). 60 μl blood was collected from mice and PRP was analyzed by flow cytometry. Quantitative results were expressed as percentage of survived transfused platelets (GFP positive cells at 5 min after transfusion was set to 100%; mean±SD; n=5). […]
C57BL/6J mice were injected retro-orbitally with fresh washed GFP platelets or GFP platelets stored at 4° C. for 24 hours (2.5×10^8 per mouse) with or without 1 mM RGDS. Blood was collected from mice and platelets were analyzed by flow cytometry. Quantitative results were expressed as percentage of survived transfused platelets (GFP positive cells of transfused fresh platelets at 5 min after transfusion was set to 100%, n=4). […]
Blood was collected from mice and platelets were analyzed by flow cytometry. Quantitative results were expressed as percentage of survived transfused platelets (GFP positive cells of transfused fresh platelets at 5 min after transfusion was set to 100%, n=4). […]

[3] = test system: cold-stored PRP from C57BL/6-Tg(CAGEGFP)1 Osb/J; experiment: Clearance of transfused cold-stored GFP platelets in PRP; assay type: in vivo, C57BL/6J mice; conditions: inclusion of EGTA, retro-orbital injection
Experimental: C57BL/6J mice were injected retro-orbitally with fresh or cold-stored PRP (2.5×10^8 per mouse) from C57BL/6-Tg(CAGEGFP)1 Osb/J. Blood was collected from the recipients and platelets were analyzed by flow cytometry, n=4). Rapid clearance of cold-stored platelets in PRP is less severe than washed platelets.

[4] = test system: washed platelets from C57BL/6J mice; experiment: Platelet adhesion and spreading on fibrinogen; assay type: cell-based; conditions: EGTA 100 μM
Experimental: Platelets were then added with buffer or 1 mM CaCl2). Washed platelets suspended in Tyrode's solution with 1 mM CaCl2 were used as a control. Platelets were then added to polystyrene dishes coated with 50 μg/mL of fibrinogen and incubated at 37° C. for 60 minutes and labeled with Rhodamine-Phalloidin and photographed using a fluorescence microscope. […] This conclusion was further confirmed by a fibrinogen binding assay.

PRP from C57BL/6 mice = experiment: Cold storage of mouse PRP: aggregation and platelet counts; assay type: cell-based; conditions: PRP with EGTA
Source text: This conclusion is drawn based on the experiments using washed platelets. Although a small portion of platelet products uses platelet additive solution (PAS), most platelet products used for transfusion are in plasma. Therefore, whether PRP has a similar phenotype as observed in washed platelets was examined.

[5] = test system: washed platelets from C57BL/6 mice; experiment: Cold storage of washed mouse platelets: aggregation and single platelet counts; assay type: cell-based; conditions: presence of EGTA, 4° C. for various time
Experimental: To investigate the mechanism of the rapid clearance after cold storage, washed platelets from C57BL/6 mice were suspended in Ca^++ free Tyrode's solution (12 mM NaHCO3, 138 mM NaCl, 5.5 mM glucose, 2.9 mM KCl, 2 mM MgCl2, 0.42 mM NaH2PO4, 10 mM HEPES, pH 7.4). and stored at RT or 4° C. Washed platelets from C57BL/6 mice were stored at RT or 4° C. for 24 hours. After storage, platelets were incubated with Oregon Green-labeled fibrinogen at 22° C. for 30 min. Fibrinogen binding to platelets was analyzed by flow cytometry. […] To confirm this observation, single platelet count was measured using a HEMAVET HV950FS multispecies hematology analyzer. Indeed, platelet counts were reduced dramatically after platelets were stored at 4° C. for over 24 hours (FIG. 1B).
To determine the molecular mechanism by which cold induces platelet activation, washed platelets prepared from C57BL/6 mice were stored at RT, cold, or cold with O-sialoglycoprotein endopeptidase (OSGE). […] GPIbα-dependent platelet activation is one of the major mechanisms leading to rapid clearance of cold-stored platelets.
If cold-induced aggregation is due to integrin activation, integrin inhibitors should be able to inhibit this process. Washed platelets from C57BL/6 mice, suspended in Ca^++ free Tyrode's solution, were added with 1 mM RGDS and stored at 4° C. for 24 hours. […]

αIIbβ3 = target: T1, αIIbβ3 (Mus musculus, UniProt O54890+Q9QUM0); experiment: Thrombin-induced fibrinogen binding to platelets (integrin ligand binding function); assay type: cell-based, C57BL/6J mice; conditions: 100 μM EGTA
T1 construct: Washed platelets from C57BL/6J mice suspended in Tyrode's solution; endogenous in cells; host or cells: washed platelets from C57BL/6J mice
T1 sequence (Q9QUM0 32-1033): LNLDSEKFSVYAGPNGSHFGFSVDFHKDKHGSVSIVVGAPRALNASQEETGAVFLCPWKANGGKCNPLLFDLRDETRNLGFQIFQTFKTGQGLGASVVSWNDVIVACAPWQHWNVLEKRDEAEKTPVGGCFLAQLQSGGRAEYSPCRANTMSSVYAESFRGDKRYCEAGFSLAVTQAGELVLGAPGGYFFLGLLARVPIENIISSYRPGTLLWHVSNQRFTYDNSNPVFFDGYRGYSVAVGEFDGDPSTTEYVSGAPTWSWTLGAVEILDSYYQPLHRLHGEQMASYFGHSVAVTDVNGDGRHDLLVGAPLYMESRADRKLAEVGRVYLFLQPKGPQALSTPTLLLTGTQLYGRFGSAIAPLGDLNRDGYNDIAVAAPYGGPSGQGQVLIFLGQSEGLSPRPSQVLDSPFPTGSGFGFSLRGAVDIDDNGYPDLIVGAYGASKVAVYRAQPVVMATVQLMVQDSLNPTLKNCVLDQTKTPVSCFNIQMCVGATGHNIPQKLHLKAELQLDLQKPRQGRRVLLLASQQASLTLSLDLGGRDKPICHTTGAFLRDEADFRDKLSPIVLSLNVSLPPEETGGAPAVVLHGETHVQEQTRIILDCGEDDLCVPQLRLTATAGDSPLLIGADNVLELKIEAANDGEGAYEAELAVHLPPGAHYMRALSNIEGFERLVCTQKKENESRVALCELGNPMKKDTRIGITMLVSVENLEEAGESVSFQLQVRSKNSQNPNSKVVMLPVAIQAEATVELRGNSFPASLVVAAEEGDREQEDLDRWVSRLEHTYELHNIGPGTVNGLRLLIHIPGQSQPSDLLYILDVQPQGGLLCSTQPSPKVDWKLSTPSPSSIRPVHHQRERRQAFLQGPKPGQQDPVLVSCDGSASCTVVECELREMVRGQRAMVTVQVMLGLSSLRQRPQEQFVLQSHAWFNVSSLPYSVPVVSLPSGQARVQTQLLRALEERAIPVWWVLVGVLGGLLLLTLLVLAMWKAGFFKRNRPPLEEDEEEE
T1 sequence (O54890 26-787): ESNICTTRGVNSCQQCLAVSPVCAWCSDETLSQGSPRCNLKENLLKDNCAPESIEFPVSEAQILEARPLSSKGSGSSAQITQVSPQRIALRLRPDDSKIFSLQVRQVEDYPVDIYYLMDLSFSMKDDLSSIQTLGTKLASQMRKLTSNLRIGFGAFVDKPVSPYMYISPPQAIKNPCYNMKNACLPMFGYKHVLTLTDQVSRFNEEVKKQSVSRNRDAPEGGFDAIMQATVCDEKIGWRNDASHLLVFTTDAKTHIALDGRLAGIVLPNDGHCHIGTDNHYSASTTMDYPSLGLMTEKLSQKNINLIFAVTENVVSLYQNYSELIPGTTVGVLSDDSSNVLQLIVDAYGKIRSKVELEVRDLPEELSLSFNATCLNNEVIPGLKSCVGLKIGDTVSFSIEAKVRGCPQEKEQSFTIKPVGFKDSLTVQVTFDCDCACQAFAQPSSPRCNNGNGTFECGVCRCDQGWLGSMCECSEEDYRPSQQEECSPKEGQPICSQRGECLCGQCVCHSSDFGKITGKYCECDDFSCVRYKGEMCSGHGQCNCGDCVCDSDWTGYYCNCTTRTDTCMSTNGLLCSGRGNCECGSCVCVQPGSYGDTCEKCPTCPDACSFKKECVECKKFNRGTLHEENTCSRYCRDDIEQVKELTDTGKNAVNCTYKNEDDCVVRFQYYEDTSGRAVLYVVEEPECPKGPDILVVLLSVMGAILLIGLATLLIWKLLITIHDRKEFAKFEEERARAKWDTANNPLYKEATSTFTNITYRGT
Experimental: Platelets were then added with buffer or 1 mM CaCl2). Washed platelets suspended in Tyrode's solution with 1 mM CaCl2 were used as a control. Platelets were incubated with Oregon Green-labeled fibrinogen and thrombin (0.1 U/ml) at 22° C. for 30 min. Quantitative results were expressed as fibrinogen binding indices (geomean of fluorescence intensity of stimulated platelets/geomean of fluorescence intensity of unstimulated platelets; n=3).

With O=C(O)CN(CCOCCOCCN(CC(=O)O)CC(=O)O)CC(=O)O [EGTA, ethylene glycol-bis(β-aminoethyl ether)-N,N,N′,N′-tetraacetic acid] the “platelet aggregation induced by thrombin” value ([1]; EGTA 100 μM at RT, thrombin 0.025 U/ml) was “inhibited platelet aggregation”, the “reversibility of the inhibition of platelet aggregation” value ([1]; EGTA 100 μM, then 1 mM CaCl2) was “reversible” and the “decrease of platelet counts after storage at 4° C.” value [2] was “inhibited”. The “platelets that stayed in circulation for more than 2 hours” value (washed GFP platelets) was “About 75%”, the “rapid clearance of cold-stored platelets” value (washed GFP platelets) was “significantly inhibited rapid clearance” and the “quick clearance of cold-stored platelets in PRP” value [3] was “significantly reduced quick clearance”. The “platelet adhesion and spreading on fibrinogen” value ([4]; 50 μg/mL fibrinogen, 37° C. for 60 minutes) was “inhibited platelet adhesion and spreading on fibrinogen”, the “reversal of the inhibition of adhesion and spreading” value ([4]; then 1 mM CaCl2) was “completely reversed” and the “reduction in platelet counts by cold storage” value (PRP from C57BL/6 mice; 4° C. for various time) was “effectively inhibited reduction in platelet counts”. For the same molecule, the “platelet aggregation in PRP” value (PRP from C57BL/6 mice; cold storage) was “inhibited platelet aggregation”, the cold-induced platelet aggregation [5] was “completely inhibited cold-induced platelet aggregation” and the “reduction in platelet counts” value [5] was “completely inhibited”. The “reversal of the inhibition of fibrinogen binding” value (αIIbβ3; then 1 mM CaCl2) was “reversed” and the “thrombin-induced fibrinogen binding to platelets” value (αIIbβ3; thrombin 0.1 U/ml, 22° C. for 30 min) was “completely inhibited”.
